In article PMC11392244, “Characterization of a unique catechol-O-methyltransferase as a molecular drug target in parasitic filarial nematodes” (PLOS Neglected Tropical Diseases, 2024):
Values joined by “and” are separate entries in the source; they are usually repeats but may differ in a detail not shown here. Identical values can stand only once. Like-named read-outs stand apart in the source and are kept apart here.

Columns and labels:
mice = settings: ref [59]; cited from earlier work
Gram-positive bacteria = system: Gram-positive bacteria; parameters: method as in PMID 4622052; settings: in vitro and in vivo; ref [59]; cited from earlier work
DiMT protein = type: biochemical, Dirofilaria immitis
mammalian cells = settings: read-out: Cytotoxicity IC50, ref Zhang et al., [30]; cited from earlier work
D. immitis microfilariae = experiment: In vitro efficacy against live D. immitis microfilariae (motility, completely immotile %); type: cell-based, Dirofilaria immitis; settings: for Completely Immotile Microfilariae (%): single experiments

SMILES: CO[C@@H]1/C=C/O[C@@]2(C)Oc3c(C)c(O)c4c(c3C2=O)C(=N[C@@H]2CC[C@@H](O)O[C@H]2C)C=C(NC(=O)/C(C)=C\C(=O)[C@@H]2C[C@@H]2[C@H](O)[C@@H](C)[C@@H](O)[C@@H](C)[C@H](OC(C)=O)[C@@H]1C)C4=O [NSC177383, tolypomycin-Y]
- toxicity in mice (mice): low toxicity
- antimicrobial activities against Gram-positive bacteria (Gram-positive bacteria): strong antimicrobial activities
- Mean Percent Inhibition (DiMT protein; 40 µM): 17.3% and 18.1% and 14.9%
- Mean Percent Inhibition, Average (DiMT protein; 40 µM): 16.8%
- Mean Percent Inhibition (DiMT protein; 80 µM): 30.5% and 30.7% and 34.4%
- Mean Percent Inhibition, Average (DiMT protein; 80 µM): 31.9%
- Mean Percent Inhibition (DiMT protein; 120 µM): 45.9% and 41.2% and 40.2%
- Mean Percent Inhibition, Average (DiMT protein; 120 µM): 42.4%
- Mean Percent Inhibition (DiMT protein; 140 µM): 50.6% and 45.4% and 42.2%
- Mean Percent Inhibition, Average (DiMT protein; 140 µM): 46.1%
- Mean Percent Inhibition (DiMT protein; 180 µM): 63.6% and 62.4% and 64.2%
- Mean Percent Inhibition, Average (DiMT protein; 180 µM): 63.4%
- IC50 (DiMT protein; read-out: IC 50 (μM ± SEM)): 140 ± 2.2 µM
- IC50 (mammalian cells): 85.5 µM
- Mean completely Immotile (%) (D. immitis microfilariae; 10 µM, 0 h): 0%
- Mean completely Immotile (%) (D. immitis microfilariae; 10 µM, 24 h): 7.83%
- Mean completely Immotile (%) (D. immitis microfilariae; 10 µM, 48 h): 18.5%
- Mean completely Immotile (%) (D. immitis microfilariae; 10 µM, 72 h): 27.33%
- Mean completely Immotile (%) (D. immitis microfilariae; 10 µM, 96 h): 38%
- Mean completely Immotile (%) (D. immitis microfilariae; 10 µM, 120 h): 56.33%
- Mean completely Immotile (%) (D. immitis microfilariae; 25 µM, 0 h): 0%
- Mean completely Immotile (%) (D. immitis microfilariae; 25 µM, 24 h): 25.33%
- Mean completely Immotile (%) (D. immitis microfilariae; 25 µM, 48 h): 33%
- Mean completely Immotile (%) (D. immitis microfilariae; 25 µM, 72 h): 71.33%
- Mean completely Immotile (%) (D. immitis microfilariae; 25 µM, 96 h): 91.33%
- Mean completely Immotile (%) (D. immitis microfilariae; 40 µM, 0 h): 0%
- Mean completely Immotile (%) (D. immitis microfilariae; 40 µM, 24 h): 57.67%
- Mean completely Immotile (%) (D. immitis microfilariae; 40 µM, 48 h): 87.67%
- Mean completely Immotile (%) (D. immitis microfilariae; 40 µM, 72 h): 96.67%
- Mean completely Immotile (%) (D. immitis microfilariae; 40 µM, 96 h): 100%
- Mean completely Immotile (%) (D. immitis microfilariae; 40 µM, 120 h): 100%
- Mean completely Immotile (%) (D. immitis microfilariae; 50 µM, 0 h): 0%
- Mean completely Immotile (%) (D. immitis microfilariae; 50 µM, 24 h): 64.67%
- Mean completely Immotile (%) (D. immitis microfilariae; 50 µM, 48 h): 93.67%
- Mean completely Immotile (%) (D. immitis microfilariae; 50 µM, 72 h): 100%
- Mean completely Immotile (%) (D. immitis microfilariae; 50 µM, 96 h): 100%
- Mean completely Immotile (%) (D. immitis microfilariae; 50 µM, 120 h): 100%
- Mean completely Immotile (%) (D. immitis microfilariae; 75 µM, 0 h): 0%
- Mean completely Immotile (%) (D. immitis microfilariae; 75 µM, 24 h): 95.33%
- Mean completely Immotile (%) (D. immitis microfilariae; 75 µM, 48 h): 100%
- Mean completely Immotile (%) (D. immitis microfilariae; 75 µM, 72 h): 100%
- Mean completely Immotile (%) (D. immitis microfilariae; 75 µM, 96 h): 100%
- Mean completely Immotile (%) (D. immitis microfilariae; 75 µM, 120 h): 100%
- Mean completely Immotile (%) (D. immitis microfilariae; 100 µM, 0 h): 0%
- Mean completely Immotile (%) (D. immitis microfilariae; 100 µM, 24 h): 100%
- Mean completely Immotile (%) (D. immitis microfilariae; 100 µM, 48 h): 100%
- Mean completely Immotile (%) (D. immitis microfilariae; 100 µM, 72 h): 100%
- Mean completely Immotile (%) (D. immitis microfilariae; 100 µM, 96 h): 100%
- Mean completely Immotile (%) (D. immitis microfilariae; 100 µM, 120 h): 100%
- EC50 (D. immitis microfilariae; 96 h post-treatment, read-out: Anti-parasitic EC50): 11.7 µM and 11.6 µM
- Completely Immotile Microfilariae (%) (D. immitis microfilariae; 10 µM, 0 h): 0%
- Completely Immotile Microfilariae (%) (D. immitis microfilariae; 10 µM, 24 h): 5% and 8.5% and 10%
- Completely Immotile Microfilariae (%) (D. immitis microfilariae; 10 µM, 48 h): 15% and 19.5% and 21%
- Completely Immotile Microfilariae (%) (D. immitis microfilariae; 10 µM, 72 h): 25% and 27% and 30%
- Completely Immotile Microfilariae (%) (D. immitis microfilariae; 10 µM, 96 h): 35% and 38% and 41%
- Completely Immotile Microfilariae (%) (D. immitis microfilariae; 10 µM, 120 h): 50% and 61% and 58%
- Completely Immotile Microfilariae (%) (D. immitis microfilariae; 25 µM, 0 h): 0%
- Completely Immotile Microfilariae (%) (D. immitis microfilariae; 25 µM, 24 h): 25% and 28% and 23%
- Completely Immotile Microfilariae (%) (D. immitis microfilariae; 25 µM, 48 h): 30% and 37% and 32%
- Completely Immotile Microfilariae (%) (D. immitis microfilariae; 25 µM, 72 h): 70% and 76% and 68%
- Completely Immotile Microfilariae (%) (D. immitis microfilariae; 25 µM, 96 h): 90% and 95% and 89%
- Completely Immotile Microfilariae (%) (D. immitis microfilariae; 25 µM, 120 h): 100%
- Completely Immotile Microfilariae (%) (D. immitis microfilariae; 40 µM, 0 h): 0%
- Completely Immotile Microfilariae (%) (D. immitis microfilariae; 40 µM, 24 h): 50% and 65% and 58%
- Completely Immotile Microfilariae (%) (D. immitis microfilariae; 40 µM, 48 h): 85% and 90% and 88%
- Completely Immotile Microfilariae (%) (D. immitis microfilariae; 40 µM, 72 h): 95% and 98% and 97%
- Completely Immotile Microfilariae (%) (D. immitis microfilariae; 40 µM, 96 h): 100%
- Completely Immotile Microfilariae (%) (D. immitis microfilariae; 40 µM, 120 h): 100%
- Completely Immotile Microfilariae (%) (D. immitis microfilariae; 50 µM, 0 h): 0%
- Completely Immotile Microfilariae (%) (D. immitis microfilariae; 50 µM, 24 h): 60% and 78% and 56%
- Completely Immotile Microfilariae (%) (D. immitis microfilariae; 50 µM, 48 h): 90% and 95% and 96%
- Completely Immotile Microfilariae (%) (D. immitis microfilariae; 50 µM, 72 h): 100%
- Completely Immotile Microfilariae (%) (D. immitis microfilariae; 50 µM, 96 h): 100%
- Completely Immotile Microfilariae (%) (D. immitis microfilariae; 50 µM, 120 h): 100%
- Completely Immotile Microfilariae (%) (D. immitis microfilariae; 75 µM, 0 h): 0%
- Completely Immotile Microfilariae (%) (D. immitis microfilariae; 75 µM, 24 h): 95% and 93% and 98%
- Completely Immotile Microfilariae (%) (D. immitis microfilariae; 75 µM, 48 h): 100%
- Completely Immotile Microfilariae (%) (D. immitis microfilariae; 75 µM, 72 h): 100%
- Completely Immotile Microfilariae (%) (D. immitis microfilariae; 75 µM, 96 h): 100%
- Completely Immotile Microfilariae (%) (D. immitis microfilariae; 75 µM, 120 h): 100%
- Completely Immotile Microfilariae (%) (D. immitis microfilariae; 100 µM, 0 h): 0%
- Completely Immotile Microfilariae (%) (D. immitis microfilariae; 100 µM, 24 h): 100%
- Completely Immotile Microfilariae (%) (D. immitis microfilariae; 100 µM, 48 h): 100%
- Completely Immotile Microfilariae (%) (D. immitis microfilariae; 100 µM, 72 h): 100%
- Completely Immotile Microfilariae (%) (D. immitis microfilariae; 100 µM, 96 h): 100%
- Completely Immotile Microfilariae (%) (D. immitis microfilariae; 100 µM, 120 h): 100%
- effect on microfilariae (D. immitis microfilariae; up to 120 h of culture): killing effect
